Source: patent US20020040062A1, “Protein kinase C activators and their use in decreasing expression of cell antigens” (The Trustees of Columbia University, priority 1993, published 2002)
Read-outs that look alike come from different tables or passages of the source. Marks after values point to notes of the source that are not given here.

B1: IFN-γ: recombinant human immune interferon produced in Escherichia coli (protein, UniProt P01579 24-161, looked up)
Interferon gamma: QDPYVKEAENLKKYFNAGHSDVADNGTLFLGILKNWKEESDRKIMQSQIVSFYFKLFKNFKDDQSIQKSVETIKEDMNVKFFNSNKKKRDDFEKLTNYSVTDLNVQRKAIHELIQVMAELSPAAKTGKRKRSQMLFRG
B2: IFN-β: recombinant human fibroblast interferon with a serine substituted for a cysteine at position 17 (protein, UniProt P01574 22-187, looked up, variant C17S)
Interferon beta: MSYNLLGFLQRSSNFQSQKLLWQLNGRLEYCLKDRMNFDIPEEIKQLQQFQKEDAALTIYEMLQNIFAIFRQDSSSTGWNETIVENLLANVYHQINHLKTVLEEKLEKEDFTRGKLMSSLHLKRYYGRILHYLKAKEYSHCAWTIVRVEILRNFYFINRLTGYLRN

Key:
ICAM-1 = test: FACS analysis of ICAM-1 surface expression in T47D cells; assay type: cell-based, human; details: 72 hr; for ICAM-1 level of upregulation versus untreated control cells (equivalent to 1.0): presence or absence of 0.1 μg/ml H-7; for ICAM-1 relative increase in expression versus untreated controls (equivalent to 1.0): presence or absence of 1.0 μg/ml H-7
Source text: (§1) IgG1 murine monoclonal antibody Cu18 and Cu46 recognize two different epitopes of a highly restricted breast carcinoma associated glycoprotein of Mr 225,000 to 250,000 (BCA 225). This TAA is expressed intracytoplasmically and on the membrane of 94% of breast tumors tested and in the T47D human breast carcinoma cell line. BCA 225 is shed into the culture medium by T47D cells and into the sera of breast cancer patients. IgG2a monoclonal antibody L243 (anti HLA Class II-DR) recognizes a monomorphic HLA Class II-DR-α epitope (ATCC M355). Monoclonal antibody CL203.4 [40], which recognizes ICAM-I, was kindly provided by Dr. S. Ferrone, New York Medical College, NY. The c-erbB-2 monoclonal antibody which recognizes the extracellular domain of c-erbB-2 was obtained from Triton Biosciences, Inc., Alamedia, Calif. Monoclonal antibodies Cu18 and Cu46 were used at 0.05 μg/ml and monoclonal antibodies interacting with HLA Class II-DR, ICAM-1 and c-erbB-2 were used at 10 μg/ml. For each experiment, isotype matched control backgrounds (IgG for Cu18, Cu46 and ICAM-1, IgG2a for HLA Class Ii and IgG2b for c-erbB-2) were subtracted from the experimental results. Background from antimouse IgG FITC antibody was also subtracted from experimental results. Applicants never observed backgrounds higher than 2% of total cells for isotypic mouse IgG or higher than 5% for antimouse IgG FITC.
(§2) T47D cells treated with the various compounds were analyzed by flow cytometry using appropriate monoclonal antibody concentrations as described previously. Briefly, 1×10^5 cells were incubated with the test antibody for 30 min at 4° C., washed 3× with PBS and incubated with a goat a mouse F (ab)2 FITC conjugated test antibody at a 1:40 dilution for 30 min at 4° C. Cells were then washed 3× with PBS and analyzed on a FACStar (Beckon Dickinson, Mountain View, Calif.) or a Coulter Epics IV FACS (Coulter, Hialeah, Fla.). Results are expressed as mean fluorescence intensity (MFI) units which were determined as described previously. MFI=(mean channel fluorescence in fluorescence positive antibody-binding cells×% of fluorescence positive antibody-binding cells)−(mean channel fluorescence in unstained cells×% of fluorescence positive cells in the unstained population). All studies were performed a minimum of three or four times with duplicate samples in each experiment. Replicate samples within individual experiments varied by ≦10% and variation between experiments were generally ≦20%.

c-erbB-2 = test: FACS analysis of c-erbB-2 surface expression in T47D cells; assay type: cell-based, human; details: 72 hr; for c-erbB-2 level of upregulation versus untreated control cells (equivalent to 1.0) / Antigenic Expression (MFI) c-erbB-2: 0.1 μg/ml TPA or MEZ; for c-erbB-2 level of upregulation versus untreated control cells (equivalent to 1.0): presence or absence of 0.1 μg/ml H-7; for Antigenic Expression (MFI) c-erbB-2: presence or absence of 0.1 μg/ml H-7, FACStar
Source text: as §1, §2

HLA-DR [1] = test: FACS analysis of HLA-DR (MoAb L243) in CBS human colon carcinoma cells; assay type: cell-based; details: 96 hours
Experimental: (§3) Cells were plated in 10 cm plates, media was changed 24 hours later with no addition (control) or addition of the indicated compounds and cells were incubated at 37° C. for 96 hours. Cells were resuspended using 10× EDTA and antigen expression was determined as described (Leon, Mesa-Tejada, Gutierrez, Estabrook, Breiner, Schlom & Fisher: Anticancer Res. 9:1639-1648, 1989; Leon, Gutierrez, Jiang, Estabrook, Waxman & Fisher: Cancer Immuno. Immunother. 35:315-324 1992).

T47D cells [2] = test: T47D cell growth assay (Coulter Counter); assay type: cell-based, human; details: for effect on 72 hr growth: 0.1 μg/ml, FIG. 1
Experimental: (§4) FIG. 1: Effect of H-7, TPA, MEZ and ADMB on T47D cell growth and DNA synthesis. Cell growth assays are presented in (A). T47D cells were seeded at 1×10^4 cells/35 mm tissue culture plate, the medium was changed with the indicated compounds 24 hr later and cell numbers were determined after an additional 72 hr growth at 37° C. by Coulter Counter. Results are the average of triplicate samples/experimental condition which varied by ≦10%. DNA synthesis assays are presented in (B). T47 D cells were seeded at 1.25×10^4 cells in 0.2 ml of media in 96 microtiter plates. Every 24 hr, cultures received 1 μCi of methyl-^3H-thymidine and 8 hr later cells were harvested and TCA precipitable counts were determined. Results are the average from replicate samples exposed to the indicated compounds for 72 hr. Replicate samples varied by ≦10% and replicate studies varied by ≦15%. Further details can be found in “Detailed Description Of The Invention”.
(§5) T47D cells were seeded at 5×10^3 cells/ml in 35 mm tissue culture plates and 24 hr later the medium was changed with the indicated compounds. Seventy-two hr later the cells were resuspended in trysin/versene (0.125%/0.02%, w/w) and counted using a ZM Coulter Counter (Coulter Electronics). For ^3H-thymidine incorporation studies, T47D cells were seeded at 1.25×10^4 cells in 0.2 ml of media in 96 well microtiter plates. Every 24 hr, plates received 1 μCi of methyl-^3H-thymidine (specific activity […]) (ICN Radiochemicals, Irvine, Calif.), cells were harvested 8 hr after the addition of labeled thymidine and TCA precipitable counts were determined using a Packard scintillation counter. Replicate samples varied by ≦10% and replicate studies varied by ≦15%.

HLA-DR [3] = test: FACS analysis of HLA-DR (MoAb L243) in WiDr human colon carcinoma cells; assay type: cell-based
Experimental: as §3, with “for the indicated time (72 or” for “for”, “hours).” for “hours.”, “Greiner,” for “Breiner,”, “Immunol. Immmunother. 35:315-324,” for “Immuno. Immunother. 35:315-324”

CA19.9 = test: FACS analysis of CA19.9 (MoAb B67.4) in CBS human colon carcinoma cells; assay type: cell-based; details: 96 hours
Experimental: as §3

T47D cells [4] = test: 3H-thymidine incorporation (DNA synthesis) in T47D cells; assay type: cell-based, human; details: 0.1 μg/ml, 72 hr, FIG. 1
Experimental: as §4, §5

[5] = 0.1 μg/ml TPA or MEZ, presence or absence of 0.1 μg/ml H-7, FACStar
[6] = 500 units/ml IFN-β or 50 units/ml IFN-γ
[7] = 500 units/ml IFN-β or 50 units/ml IFN-γ, presence or absence of 1.0 μg/ml H-7, Coulter Epics IV FACS
[8] = 72 Hour Treatment, MEZ 100 ng/ml, IFN-γ 100 U/ml
[9] = 96 Hour Treatment, MEZ 100 ng/ml, IFN-γ 100 U/ml

Row | Molecule | ICAM-1 level of upregulation versus untreated control cells (equivalent to 1.0) (ICAM-1; 0.1 μg/ml TPA or MEZ) | Antigenic Expression (MFI) ICAM-1 (ICAM-1; [5]) | ICAM-1 relative increase in expression versus untreated controls (equivalent to 1.0) (ICAM-1; [6]) | Antigenic Expression (MFI) ICAM-1 (ICAM-1; [7]) | c-erbB-2 level of upregulation versus untreated control cells (equivalent to 1.0) (c-erbB-2) | Antigenic Expression (MFI) c-erbB-2 (c-erbB-2) | effect on 72 hr growth (T47D cells [2]; T47D cells) | effect on DNA synthesis (3H-thymidine incorporation) (T47D cells [4]) | Monoclonal Antibody Binding (MFI) MoAb L243 (HLA-DR) (HLA-DR [1]; MEZ 1100 ng/ml, IFN-γ 100 U/ml) | Monoclonal Antibody Binding (MFI) MoAb L243 (HLA-DR) (HLA-DR [3]; [8]) | Monoclonal Antibody Binding (MFI) MoAb L243 (HLA-DR) (HLA-DR [3]; [9]) | Monoclonal Antibody Binding (MFI) MoAb B67.4 (CA19.9) (CA19.9; MEZ 1100 ng/ml, IFN-γ 100 U/ml) | also measured
1 | CC1CNCCN1S(=O)(=O)c1cccc2cnccc12.Cl.Cl (stereo not shown) [H-7, 1-(5-isoquinolinesulfonyl)-2-methylpiperazine dihydrochloride] | (1.0) | 21,538 MFI | 1.0 | 54,080 MFI | (1.0) | 7,045 MFI |  |  |  |  |  |  | 
2 | CCCCCCCCCCN(C)c1cc(CO)cc(NC(C)=O)c1 [ADMB, 3-(N-acetylamino)-5-(N-decyl-N-methylamino)-benzyl alcohol] |  |  |  |  |  |  | only marginally altered | only marginally altered |  |  |  |  | Monoclonal Antibody Binding (MFI) MoAb L243 (HLA-DR) (HLA-DR [1]; ADMB 0.01 μg/ml): 4112 MFI; Monoclonal Antibody Binding (MFI) MoAb L243 (HLA-DR) (HLA-DR [1]; ADMB 0.1 μg/ml): 3328 MFI; Monoclonal Antibody Binding (MFI) MoAb L243 (HLA-DR) (HLA-DR [1]; ADMB 1.0): 6870* MFI; Monoclonal Antibody Binding (MFI) MoAb L243 (HLA-DR) (HLA-DR [3]; 72 Hour Treatment, ADMB 0.01 μg/ml): 390 MFI; Monoclonal Antibody Binding (MFI) MoAb L243 (HLA-DR) (HLA-DR [3]; 72 Hour Treatment, ADMB 0.1 μg/ml): 317 MFI; Monoclonal Antibody Binding (MFI) MoAb L243 (HLA-DR) (HLA-DR [3]; 72 Hour Treatment, ADMB 1.0 μg/ml): 486* MFI; Monoclonal Antibody Binding (MFI) MoAb L243 (HLA-DR) (HLA-DR [3]; 96 Hour Treatment, ADMB 0.01 μg/ml): 434 MFI; Monoclonal Antibody Binding (MFI) MoAb L243 (HLA-DR) (HLA-DR [3]; 96 Hour Treatment, ADMB 0.1 μg/ml): 615* MFI; Monoclonal Antibody Binding (MFI) MoAb L243 (HLA-DR) (HLA-DR [3]; 96 Hour Treatment, ADMB 1.0 μg/ml): 806* MFI; Monoclonal Antibody Binding (MFI) MoAb B67.4 (CA19.9) (CA19.9; ADMB 0.01 μg/ml): 3562* MFI; Monoclonal Antibody Binding (MFI) MoAb B67.4 (CA19.9) (CA19.9; ADMB 0.1 μg/ml): 3473* MFI; Monoclonal Antibody Binding (MFI) MoAb B67.4 (CA19.9) (CA19.9; ADMB 1.0 g/ml): 3962* MFI
3 | CCCCCCCCCCCCCC(=O)O[C@@H]1[C@@H](C)[C@@]2(O)[C@@H](C=C(CO)C[C@]3(O)C(=O)C(C)=C[C@@H]23)[C@H]2C(C)(C)[C@]12OC(C)=O [TPA, 12-0-tetradecanoyl-phorbol-13-acetate] | (3.0) | 63,175 MFI |  |  | (2.3) | 16,100 MFI | suppressed to the greatest degree | suppressed to the greatest degree |  |  |  |  | 72 hr growth suppression in combination with H-7 (T47D cells [2]): No additive or synergistic effect
4 | C=C(C)[C@@]12O[C@@]3(c4ccccc4)O[C@@H]1[C@@H]1[C@@H]4O[C@]4(CO)[C@@H](O)[C@]4(O)C(=O)C(C)=C[C@H]4[C@@]1(O3)[C@H](C)[C@H]2OC(=O)/C=C/C=C/c1ccccc1 [MEZ, mezerein] | (4.1) | 85,745 MFI |  |  | (2.6) | 18,385 MFI | only marginally altered | only marginally altered | 9726* MFI | 1120* MFI | 2129* MFI | 3288* MFI | efficacy of upregulation of c-erbB-2 (fold-change in MFI, FIG. 2) (c-erbB-2; 0.1 μg/ml of ADMB, TPA or MEZ): most effective PKC activator tested; 72 hr growth suppression in combination with H-7 (T47D cells [2]; T47D cells, in combination with 0.1 μg/ml of H-7, data not shown): No additive or synergistic effect
5 | B1 |  |  | 3.5 | 191,490 MFI |  |  |  |  | 14972* MFI | 1724* MFI | 2376* MFI | 4970* MFI | activity in increasing Class II HLA-DR antigens relative to ADMB (HLA-DR [1]): approximately 2 ×; activity in increasing Class II HLA-DR antigens relative to ADMB (HLA-DR [3]): approximately 3 ×
6 | B2 |  |  | 1.8 | 97,013 MFI |  |  |  |  |  |  |  |  | 
